Data published in publication PMC2248166, “Quantitative peptide binding motifs for 19 human and mouse MHC class I molecules derived using positional scanning combinatorial peptide libraries” (Immunome Research, 2008).
Where a SMILES comes first, the peptide text is derived from it.

Biological target: HLA B*1501 (Homo sapiens, UniProt P01889, A329T/A93T/A95T/C349S/D201E/D98Y/E187L/E204Q/E69M/E70A/K202T/N87E/Q94N/R155S/R180W/S121R/S35A/S48A/V306I/V36M/Y140S/Y91S)
Assay: biochemical
Assay type: binding

Compound	IC50
CSCC[C@H](NC(=O)[C@H](CO)NC(=O)[C@@H](NC(=O)[C@H](CC(C)C)NC(=O)[C@H](CCCCN)NC(=O)[C@H](CO)NC(=O)[C@@H](N)Cc1ccc(O)cc1)[C@@H](C)O)C(=O)N[C@@H](Cc1c[nH]cn1)C(=O)N[C@@H](Cc1ccccc1)C(=O)O [3102.0944] (H-YSKLTSMHF-OH)	0.57 nM
CC[C@H](C)[C@H](NC(=O)[C@H](CO)NC(=O)[C@@H](N)CCSC)C(=O)N[C@H](C(=O)N[C@@H](CO)C(=O)N[C@@H](Cc1ccccc1)C(=O)N[C@@H](Cc1ccccc1)C(=O)N1CCC[C@H]1C(=O)N[C@@H](Cc1ccccc1)C(=O)O)[C@@H](C)CC [3102.0947] (H-MSIISFFPF-OH)	0.17 nM
CC[C@H](C)[C@H](NC(=O)[C@@H](N)CO)C(=O)N[C@@H](CCCCN)C(=O)N[C@@H](CC(N)=O)C(=O)N[C@@H](CC(C)C)C(=O)N[C@H](C(=O)N[C@@H](CO)C(=O)N[C@@H](CCC(N)=O)C(=O)N[C@@H](Cc1ccccc1)C(=O)O)C(C)C [3102.0951] (H-SIKNLVSQF-OH)	25 nM
CC(C)C[C@H](NC(=O)[C@H](Cc1ccc(O)cc1)NC(=O)[C@H](Cc1ccccc1)NC(=O)[C@@H](NC(=O)[C@H](CC(N)=O)NC(=O)[C@H](CCCCN)NC(=O)[C@H](CO)NC(=O)[C@@H](N)CC(C)C)[C@@H](C)O)C(=O)N[C@@H](Cc1ccccc1)C(=O)O [3102.0952] (H-LSKNTFYLF-OH)	14 nM
CC[C@H](C)[C@H](NC(=O)[C@@H](NC(=O)[C@H](Cc1ccccc1)NC(=O)[C@H](CCCCN)NC(=O)[C@H](CCC(N)=O)NC(=O)[C@@H](N)CCSC)[C@@H](C)O)C(=O)N[C@@H](CC(C)C)C(=O)N[C@@H](CCC(=O)O)C(=O)N[C@@H](Cc1ccc(O)cc1)C(=O)O [3102.0953] (H-MQKFTILEY-OH)	10 nM
CC[C@H](C)[C@H](NC(=O)[C@H](CCCNC(=N)N)NC(=O)[C@H](Cc1ccc(O)cc1)NC(=O)[C@H](CCC(N)=O)NC(=O)[C@@H](NC(=O)[C@@H](N)CC(C)C)C(C)C)C(=O)N[C@@H](CC(C)C)C(=O)N1CCC[C@H]1C(=O)N[C@@H](CCSC)C(=O)O [3102.0954] (H-LVQYRILPM-OH)	63 nM
CC[C@H](C)[C@H](NC(=O)[C@H](CCC(=O)O)NC(=O)[C@@H](N)CCC(=O)O)C(=O)N[C@@H](CO)C(=O)N[C@H](C(=O)N[C@@H](CO)C(=O)N[C@@H](CC(C)C)C(=O)N[C@@H](CO)C(=O)N[C@@H](Cc1ccccc1)C(=O)O)[C@@H](C)O [3102.0958] (H-EEISTSLSF-OH)	2.1 nM
CC(C)C[C@H](NC(=O)[C@H](CC(N)=O)NC(=O)[C@H](C)NC(=O)[C@H](CO)NC(=O)[C@@H](N)CC(C)C)C(=O)N[C@@H](Cc1ccccc1)C(=O)N[C@@H](CCC(=O)O)C(=O)N[C@@H](CO)C(=O)N[C@@H](CCC(N)=O)C(=O)O [3102.0959] (H-LSANLFESQ-OH)	45 nM
C[C@H](NC(=O)[C@H](CO)NC(=O)[C@@H](N)CCCNC(=N)N)C(=O)N[C@@H](CC(N)=O)C(=O)N[C@H](C(=O)N[C@@H](CO)C(=O)N[C@@H](C)C(=O)N1CCC[C@H]1C(=O)N[C@@H](Cc1ccccc1)C(=O)O)[C@@H](C)O [3102.0964] (H-RSANTSAPF-OH)	0.68 nM
CC[C@H](C)[C@H](NC(=O)CNC(=O)[C@@H](NC(=O)[C@H](CCCCN)NC(=O)[C@@H](NC(=O)[C@@H](N)CCC(=O)O)[C@@H](C)CC)[C@@H](C)O)C(=O)N[C@@H](CO)C(=O)N[C@@H](CO)C(=O)N[C@@H](Cc1ccccc1)C(=O)O [3102.0969] (H-EIKTGISSF-OH)	90 nM
CC[C@H](C)[C@H](NC(=O)[C@@H](N)CCC(=O)O)C(=O)N[C@@H](Cc1ccccc1)C(=O)N[C@@H](CCCCN)C(=O)N[C@@H](Cc1c[nH]cn1)C(=O)N[C@@H](CC(C)C)C(=O)N[C@H](C(=O)N[C@@H](Cc1ccccc1)C(=O)N[C@@H](Cc1ccccc1)C(=O)O)C(C)C [3102.0972] (H-EIFKHLVFF-OH)	12 nM
CC[C@H](C)[C@H](NC(=O)[C@H](CC(C)C)NC(=O)[C@H](CC(=O)O)NC(=O)[C@H](CCCNC(=N)N)NC(=O)[C@H](CCSC)NC(=O)[C@@H](N)CC(N)=O)C(=O)N[C@H](C(=O)N[C@H](C(=O)N[C@@H](Cc1ccccc1)C(=O)O)[C@@H](C)O)C(C)C [3102.0975] (H-NMRDLIVTF-OH)	8.3 nM
CC(C)C[C@H](NC(=O)[C@@H](N)CC(C)C)C(=O)N[C@@H](CO)C(=O)N[C@@H](CCCNC(=N)N)C(=O)N[C@@H](Cc1ccc(O)cc1)C(=O)N[C@@H](CC(=O)O)C(=O)N[C@@H](CCC(=O)O)C(=O)N[C@@H](Cc1c[nH]cn1)C(=O)N[C@@H](Cc1ccccc1)C(=O)O [3102.0976] (H-LLSRYDEHF-OH)	54 nM
CSCC[C@H](NC(=O)[C@H](Cc1c[nH]cn1)NC(=O)[C@H](CCC(=O)O)NC(=O)[C@H](Cc1ccccc1)NC(=O)[C@H](Cc1ccc(O)cc1)NC(=O)CNC(=O)[C@H](CCCNC(=N)N)NC(=O)[C@H](CO)NC(=O)[C@@H](N)CCSC)C(=O)O [3102.0982] (H-MSRGYFEHM-OH)	31 nM
CC[C@H](C)[C@H](NC(=O)[C@H](CCSC)NC(=O)[C@@H](N)CO)C(=O)N[C@@H](CC(N)=O)C(=O)N[C@@H](Cc1ccc(O)cc1)C(=O)N[C@@H](Cc1ccc(O)cc1)C(=O)N[C@@H](CC(N)=O)C(=O)N[C@@H](CCC(=O)O)C(=O)N[C@@H](CCSC)C(=O)O [3102.0985] (H-SMINYYNEM-OH)	2.3 nM
CC[C@H](C)[C@H](NC(=O)[C@@H](N)Cc1ccccc1)C(=O)N[C@@H](CC(N)=O)C(=O)N[C@@H](CO)C(=O)N[C@H](C(=O)N[C@@H](CS)C(=O)N[C@@H](Cc1ccc(O)cc1)C(=O)N[C@H](C(=O)N[C@@H](Cc1ccccc1)C(=O)O)C(C)C)[C@@H](C)O [3102.0986] (H-FINSTCYVF-OH)	4.3 nM
C[C@@H](O)[C@H](NC(=O)[C@H](Cc1ccccc1)NC(=O)[C@H](CO)NC(=O)[C@@H](N)CCCNC(=N)N)C(=O)N[C@@H](Cc1ccccc1)C(=O)N[C@@H](CCCCN)C(=O)N[C@@H](CCC(=O)O)C(=O)NCC(=O)N[C@@H](Cc1ccccc1)C(=O)O [3102.0988] (H-RSFTFKEGF-OH)	35 nM
CC[C@H](C)[C@H](NC(=O)[C@H](CO)NC(=O)[C@@H](N)CCSC)C(=O)N[C@@H](CC(=O)O)C(=O)N[C@@H](Cc1c[nH]cn1)C(=O)N[C@@H](CS)C(=O)N[C@@H](CO)C(=O)N[C@@H](CO)C(=O)N[C@@H](Cc1ccccc1)C(=O)O [3102.0989] (H-MSIDHCSSF-OH)	0.95 nM
CC[C@H](C)[C@H](N)C(=O)N[C@H](C(=O)N[C@@H](Cc1ccc(O)cc1)C(=O)N[C@@H](CS)C(=O)N[C@@H](CC(C)C)C(=O)N[C@H](C(=O)N[C@H](C(=O)N[C@@H](Cc1c[nH]cn1)C(=O)N[C@@H](CCSC)C(=O)O)[C@@H](C)O)C(C)C)[C@@H](C)O [3102.0993] (H-ITYCLVTHM-OH)	25 nM
CC(C)C[C@H](NC(=O)[C@H](Cc1ccc(O)cc1)NC(=O)[C@H](C)NC(=O)[C@@H](N)CCCCN)C(=O)N[C@@H](Cc1ccc(O)cc1)C(=O)N[C@H](C(=O)N[C@@H](CCC(=O)O)C(=O)N[C@@H](Cc1ccc(O)cc1)C(=O)N[C@@H](Cc1ccccc1)C(=O)O)[C@@H](C)O [3102.0995] (H-KAYLYTEYF-OH)	7.6 nM
CC[C@H](C)[C@H](NC(=O)[C@@H](N)Cc1c[nH]cn1)C(=O)N[C@@H](CC(N)=O)C(=O)N[C@@H](CCCCN)C(=O)N[C@@H](CC(C)C)C(=O)N[C@@H](Cc1ccccc1)C(=O)N[C@@H](CO)C(=O)N[C@H](C(=O)N[C@@H](Cc1ccccc1)C(=O)O)C(C)C [3102.0997] (H-HINKLFSVF-OH)	0.92 nM
CC[C@H](C)[C@H](NC(=O)[C@H](CO)NC(=O)[C@H](C)N)C(=O)N[C@H](C(=O)N[C@@H](C)C(=O)N[C@@H](Cc1ccccc1)C(=O)N[C@@H](CCCCN)C(=O)N[C@@H](CO)C(=O)N[C@@H](CCSC)C(=O)O)[C@@H](C)O [3102.0999] (H-ASITAFKSM-OH)	25 nM
CC[C@H](C)[C@H](NC(=O)[C@H](C)NC(=O)[C@@H](N)CC(C)C)C(=O)N1CCC[C@H]1C(=O)N[C@@H](C)C(=O)N[C@H](C(=O)N[C@@H](CCC(=O)O)C(=O)N[C@@H](Cc1ccccc1)C(=O)N[C@@H](Cc1ccccc1)C(=O)O)[C@@H](C)O [3102.1001] (H-LAIPATEFF-OH)	4.2 nM
CC[C@H](C)[C@H](NC(=O)[C@H](CO)NC(=O)[C@@H](N)CC(C)C)C(=O)N[C@@H](Cc1ccccc1)C(=O)N[C@@H](Cc1ccccc1)C(=O)N[C@H](C(=O)N[C@H](C(=O)N[C@H](C(=O)N[C@@H](C)C(=O)O)C(C)C)C(C)C)[C@@H](C)CC [3102.1004] (H-LSIFFIVVA-OH)	82 nM
CC[C@H](C)[C@H](NC(=O)[C@H](CC(N)=O)NC(=O)[C@H](C)N)C(=O)N[C@H](C(=O)N[C@@H](Cc1c[nH]cn1)C(=O)N[C@@H](Cc1ccccc1)C(=O)N[C@@H](CS)C(=O)N[C@@H](CO)C(=O)N[C@@H](Cc1ccccc1)C(=O)O)[C@@H](C)O [3102.1005] (H-ANITHFCSF-OH)	15 nM
CC[C@H](C)[C@H](NC(=O)[C@H](CC(N)=O)NC(=O)[C@H](C)NC(=O)[C@H](CCCNC(=N)N)NC(=O)CNC(=O)[C@@H](N)CC(C)C)C(=O)N[C@H](C(=O)N[C@@H](Cc1c[nH]cn1)C(=O)N[C@@H](Cc1ccccc1)C(=O)O)[C@@H](C)O [3102.1006] (H-LGRANITHF-OH)	6.7 nM
CC(C)C[C@H](NC(=O)[C@H](CC(C)C)NC(=O)[C@@H](N)Cc1ccccc1)C(=O)N[C@@H](CO)C(=O)N[C@@H](CC(C)C)C(=O)N[C@H](C(=O)N[C@@H](CCC(=O)O)C(=O)N[C@@H](Cc1ccccc1)C(=O)N[C@@H](Cc1ccccc1)C(=O)O)C(C)C [3102.1008] (H-FLLSLVEFF-OH)	0.82 nM
CSCC[C@H](NC(=O)[C@H](CO)NC(=O)[C@H](CS)NC(=O)[C@H](CO)NC(=O)[C@@H](NC(=O)[C@@H](N)CCCCN)C(C)C)C(=O)N[C@@H](CC(C)C)C(=O)N[C@@H](CCC(=O)O)C(=O)N[C@@H](Cc1ccccc1)C(=O)O [3102.1010] (H-KVSCSMLEF-OH)	0.84 nM
CC[C@H](C)[C@H](NC(=O)[C@@H](NC(=O)CN)[C@@H](C)O)C(=O)N[C@@H](CCSC)C(=O)N[C@H](C(=O)N[C@@H](CO)C(=O)N[C@@H](CCC(=O)O)C(=O)N[C@@H](Cc1c[nH]cn1)C(=O)N[C@@H](Cc1ccccc1)C(=O)O)C(C)C [3102.1012] (H-GTIMVSEHF-OH)	57 nM
